Molecular target: Tumour suppressor p53/oncoprotein Mdm2 (Homo sapiens, UniProt Q00987)
Assay: Inhibition of C-terminal biotin-tagged streptavidin labelled human MDM2 ( 2 to 188 residues)/Cy5-labelled p53 (18 to 26 residues)(unknown origin) interaction after 15 mins by TR-FRET assay
Type: protein assay

Sequence of Tumour suppressor p53/oncoprotein Mdm2 (P04637 whole entry, the tested form may be a part): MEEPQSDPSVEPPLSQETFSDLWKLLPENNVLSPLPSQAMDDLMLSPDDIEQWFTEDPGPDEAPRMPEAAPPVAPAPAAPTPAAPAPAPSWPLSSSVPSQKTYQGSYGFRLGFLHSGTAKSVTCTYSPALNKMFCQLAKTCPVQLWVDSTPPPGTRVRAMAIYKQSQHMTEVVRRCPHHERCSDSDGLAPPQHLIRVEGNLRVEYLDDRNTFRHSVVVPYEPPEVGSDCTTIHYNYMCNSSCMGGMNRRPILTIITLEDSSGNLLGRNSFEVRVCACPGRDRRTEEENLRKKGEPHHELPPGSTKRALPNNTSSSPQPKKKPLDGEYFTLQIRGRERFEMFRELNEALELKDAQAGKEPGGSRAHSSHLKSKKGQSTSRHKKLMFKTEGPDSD
Sequence of Tumour suppressor p53/oncoprotein Mdm2 (Q00987 whole entry, the tested form may be a part): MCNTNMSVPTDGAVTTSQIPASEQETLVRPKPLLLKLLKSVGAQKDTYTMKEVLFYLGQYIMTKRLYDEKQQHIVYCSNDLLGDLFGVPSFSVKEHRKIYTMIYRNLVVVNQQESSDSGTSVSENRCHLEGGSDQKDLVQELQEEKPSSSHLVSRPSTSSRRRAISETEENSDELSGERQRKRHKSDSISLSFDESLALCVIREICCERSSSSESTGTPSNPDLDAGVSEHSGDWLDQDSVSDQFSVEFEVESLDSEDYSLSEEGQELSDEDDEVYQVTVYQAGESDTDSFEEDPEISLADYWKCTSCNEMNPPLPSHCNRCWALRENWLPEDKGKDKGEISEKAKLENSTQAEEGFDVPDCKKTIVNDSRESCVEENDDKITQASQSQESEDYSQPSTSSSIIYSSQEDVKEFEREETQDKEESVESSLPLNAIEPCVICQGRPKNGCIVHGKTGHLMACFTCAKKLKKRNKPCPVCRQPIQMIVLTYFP

SMILES | IC50 [µM]
Cc1ccc(N2C(=O)c3[nH]nc(C)c3C2c2ccc(Cl)cc2)cc1 (stereo not given) | 1.5
CC(C)c1n[nH]c2c1C(c1ccc(Cl)cc1)N(c1cccc(Cl)c1)C2=O (racemic) | 0.032
CC(C)(C)c1n[nH]c2c1C(c1ccc(Cl)cc1)N(c1cccc(Cl)c1)C2=O (racemic) | 0.018

Results, then the molecule that gave them:

IC50 [µM] | SMILES
0.0042 | Cc1cc(Cl)ccc1C1c2c(C(C)C)n[nH]c2C(=O)N1c1cc(Cl)ccc1C (racemic)
0.35 | Cc1n[nH]c2c1C(c1ccc(Cl)cc1)N(c1cccc(Cl)c1)C2=O (racemic)
